Measurements: US9062033B2, “Chemical compounds” (Rottapharm Biotech S.r.l., priority 2011, dated 2015)

Assays:
human OX1 receptors = target: T1, human OX1 receptors (Homo sapiens, UniProt O43613); test: Antagonistic activity against human OX1 receptor, [Ca2+]i fluorimetry (Fluo-4NW) in transfected CHO cells activated with orexin-A; format: cell-based; conditions: for Kb: CHO cells transfected with human recombinant OX1, orexin-A 3 nM, pKb = co-logarithm of apparent dissociation constant, modified Cheng Prusoff
T1 construct: expressed in transfected cells; host or cells: CHO cells
T1 sequence (O43613 1-425): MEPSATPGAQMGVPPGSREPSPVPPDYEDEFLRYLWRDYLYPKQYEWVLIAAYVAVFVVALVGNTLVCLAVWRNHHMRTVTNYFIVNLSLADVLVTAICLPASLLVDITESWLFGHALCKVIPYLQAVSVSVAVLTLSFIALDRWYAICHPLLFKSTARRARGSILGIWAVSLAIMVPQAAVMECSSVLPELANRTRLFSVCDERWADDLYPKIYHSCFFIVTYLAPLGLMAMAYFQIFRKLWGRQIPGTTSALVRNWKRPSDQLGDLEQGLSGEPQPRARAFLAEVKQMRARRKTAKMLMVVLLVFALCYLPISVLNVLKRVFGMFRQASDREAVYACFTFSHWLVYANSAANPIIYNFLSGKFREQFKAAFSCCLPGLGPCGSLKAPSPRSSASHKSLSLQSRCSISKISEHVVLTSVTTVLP
Experimental: (§1) In a typical experiment, the antagonistic activity against human OX1 and OX2 receptors is determined by using CHO e HEK-293 cells transfected with human recombinant OX1 and OX2 receptors respectively, seeded at density of 2 and 3×10^4 cells/well respectively in a 96 fluorimetry well plate. Thus the plate was loaded with the calcium dye (Fluo-4NW/probenecid in HBSS, Hepes 20 mM, pH 7.4; Invitrogen) at 37° C. for 60 min. Afterward the temperature was equilibrated at 22° C. for 15 min and the [Ca2+]i measured directly on the plate by using a fluorescent plate reader (CellLux Perkin Elmer).
(§2) Invention compounds were dissolved in DMSO, diluted in HBSS (DMSO, 0.3% final) and added to the wells. After 5 min CHO cells were activated with orexin-A, 3 nM while HEK-293 cells were activated with orexin-B, 10 nM.
(§3) The compounds, dissolved in DMSO and diluted in the medium (DMSO, 0.3% final), have been analysed in the 1 nM-1 μM concentration range (every concentration in duplicate). The antagonistic activity has been expressed as pKb (co-logarithm of the apparent dissociation constant calculated by using the modified Cheng Prusoff equation).
(§4) The results are expressed as percent of control specific […] response ((measured specific response/control specific agonist response)×100) obtained in the presence of the test compounds.
(§5) The IC50 values (concentration causing a half-maximal inhibition of the control specific agonist response) were determinated by non-linear regression analysis of the concentration curves generated with mean replicate values using hill equation curve fitting. The IC50 values are obtained by the arithmetical mean of at least two experiments. Compounds of the following example tested according to this example gave pKbs as follows: […]

human OX2 receptors = target: T2, human OX2 receptors (Homo sapiens, UniProt O43614); test: Antagonistic activity against human OX2 receptor, [Ca2+]i fluorimetry (Fluo-4NW) in transfected HEK-293 cells activated with orexin-B; format: cell-based; conditions: for Kb: HEK-293 cells transfected with human recombinant OX2, orexin-B 10 nM, pKb = co-logarithm of apparent dissociation constant, modified Cheng Prusoff
T2 construct: expressed in transfected cells; host or cells: HEK-293 cells
T2 sequence (O43614 1-444): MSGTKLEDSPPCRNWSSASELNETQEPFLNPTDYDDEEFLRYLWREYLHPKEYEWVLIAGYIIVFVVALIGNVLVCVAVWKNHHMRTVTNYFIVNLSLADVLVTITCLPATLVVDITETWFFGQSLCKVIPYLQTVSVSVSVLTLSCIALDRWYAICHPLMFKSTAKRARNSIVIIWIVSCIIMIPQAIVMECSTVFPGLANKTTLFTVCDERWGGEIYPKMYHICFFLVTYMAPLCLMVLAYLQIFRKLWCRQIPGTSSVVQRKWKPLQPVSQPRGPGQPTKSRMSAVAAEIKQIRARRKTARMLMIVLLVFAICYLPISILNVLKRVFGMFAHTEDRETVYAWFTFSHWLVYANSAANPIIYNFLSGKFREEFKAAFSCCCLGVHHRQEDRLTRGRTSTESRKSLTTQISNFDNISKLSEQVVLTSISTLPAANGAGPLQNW
Experimental: as §1, §2, §3, §4, §5

[1] = comparison table with compound of WO2011006960

Structure (SMILES): Cc1cc(C(F)(F)F)cc(NC[C@@H]2CC3(CC3)CN2C(=O)c2cc(F)ccc2-c2ncccn2)n1 [Compound 1j, (S)-(5-fluoro-2-(pyrimidin-2-yl)phenyl)(6-(((6-methyl-4-(trifluoromethyl)pyridin-2-yl)amino)methyl)-5-azaspiro[2.4]heptan-5-yl)methanone]
- Kb (human OX1 receptors): 20 nM
- Kb (human OX2 receptors): 6.31 nM

Structure (SMILES): O=C(c1c(F)cccc1-c1ncccn1)N1CC2(CC2)C[C@H]1CNc1ncc(C(F)(F)F)cc1F [Compound 1g, (S)-(6-(((3-fluoro-5-(trifluoromethyl)pyridin-2-yl)amino)methyl)-5-azaspiro[2.4]heptan-5-yl)(2-fluoro-6-(pyrimidin-2-yl)phenyl)methanone]
- Kb (human OX1 receptors): 1.26 nM
- Kb (human OX2 receptors): 39.8 nM

Structure (SMILES): O=C(c1cc(Cl)ccc1-c1ncccn1)N1CC2(CC2)C[C@H]1CNc1cc(Cl)c(C(F)(F)F)cn1 [Compound 1v, (S)-(5-chloro-2-(pyrimidin-2-yl)phenyl)(6-(((4-chloro-5-(trifluoromethyl)pyridin-2-yl)amino)methyl)-5-azaspiro[2.4]heptan-5-yl)methanone]
- Kb (human OX1 receptors): 6.31 nM
- Kb (human OX2 receptors): 10 nM

Structure (SMILES): Cc1ccc(-c2nccs2)c(C(=O)N2CC3(CC3)C[C@H]2CNc2ccc(C(F)(F)F)cn2)n1 [Compound 3q, (S)-(6-methyl-3-(thiazol-2-yl)pyridin-2-yl)(6-(((5-(trifluoromethyl)pyridin-2-yl)amino)methyl)-5-azaspiro[2.4]heptan-5-yl)methanone]
- Kb (human OX1 receptors): 2.51 nM
- Kb (human OX2 receptors): 10 nM

Structure (SMILES): O=C(c1cc(Cl)ccc1-c1ncccn1)N1CC2(CC2)C[C@H]1CNc1cc(C(F)(F)F)c(Cl)cn1 [Compound 1t, (S)-(5-chloro-2-(pyrimidin-2-yl)phenyl)(6-(((5-chloro-4-(trifluoromethyl)pyridin-2-yl)amino)methyl)-5-azaspiro[2.4]heptan-5-yl)methanone]
- Kb (human OX1 receptors): 7.94 nM
- Kb (human OX2 receptors): 20 nM

Structure (SMILES): Cc1cnn(-c2ccc(C)nc2C(=O)N2CC3(CC3)C[C@H]2CNc2ccc(C(F)(F)F)cn2)c1 [Compound 3i, (S)-(6-methyl-3-(4-methyl-1H-pyrazol-1-yl)pyridin-2-yl)(6-(((5-(trifluoromethyl)pyridin-2-yl)amino)-methyl)-5-azaspiro[2.4]heptan-5-yl)methanone]
- Kb (human OX1 receptors): 1.26 nM
- Kb (human OX2 receptors): 5.01 nM

Structure (SMILES): Cc1ccc(OCc2ccc(F)cc2F)c(C(=O)N2CC3(CC3)C[C@H]2CNc2ccc(C(F)(F)F)cn2)n1 [Compound 3n, (S)-(3-((2,4-difluorobenzyl)oxy)-6-methylpyridin-2-yl)(6-(((5-(trifluoromethyl)pyridin-2-yl)amino)methyl)-5-azaspiro[2.4]heptan-5-yl)methanone]
- Kb (human OX1 receptors): 79.4 nM
- Kb (human OX2 receptors): 79.4 nM

Structure (SMILES): Cc1ccc(-c2ncccn2)c(C(=O)N2CC3(CC3)C[C@H]2CNc2nccc(C(F)(F)F)n2)c1 [Compound 1p, (S)-(5-methyl-2-(pyrimidin-2-yl)phenyl)(6-(((4-(trifluoromethyl)pyrimidin-2-yl)amino)methyl)-5-azaspiro[2.4]heptan-5-yl)methanone]
- Kb (human OX1 receptors): 79.4 nM
- Kb (human OX2 receptors): 20 nM

Structure (SMILES): Cc1ccc(-c2ncccn2)c(C(=O)N2CC3(CC3)C[C@H]2CNc2nc3ccccc3o2)n1 [Compound E9, (S)-(6-((benzo[d]oxazol-2-ylamino)methyl)-5-azaspiro[2.4]heptan-5-yl)(6-methyl-3-(pyrimidin-2-yl)pyridin-2-yl)methanone]
- Kb (human OX1 receptors): 0.631 nM
- Kb (human OX2 receptors): 25.1 nM

Structure (SMILES): Cc1nc(C(=O)N2CC3(CC3)C[C@H]2CNc2nc3ccccc3o2)c(-c2ccccc2)s1 [Compound 2b, (S)-(6-((benzo[d]oxazol-2-ylamino)methyl)-5-azaspiro[2.4]heptan-5-yl)(2-methyl-5-phenylthiazol-4-yl)methanone]
- Kb (human OX1 receptors): 0.794 nM
- Kb (human OX2 receptors): 2.51 nM

Structure (SMILES): Cc1ccc(OCc2ccccc2)c(C(=O)N2CC3(CC3)C[C@H]2CNc2ccc(C(F)(F)F)cn2)n1 [Compound 3k, (S)-(3-(benzyloxy)-6-methylpyridin-2-yl)(6-(((5-(trifluoromethyl)pyridin-2-yl)amino)methyl)-5-azaspiro[2.4]heptan-5-yl)methanone]
- Kb (human OX1 receptors): 2.51 nM
- Kb (human OX2 receptors): 2.51 nM

Structure (SMILES): Cc1nc(C(=O)N2CC3(CC3)C[C@H]2CNc2nc3ccc(F)cc3s2)c(-c2ccccc2)s1 [Compound 2h, (S)-(6-(((6-fluorobenzo[d]thiazol-2-yl)amino)methyl)-5-azaspiro[2.4]heptan-5-yl)(2-methyl-5-phenylthiazol-4-yl)methanone]
- Kb (human OX1 receptors): 3.98 nM
- Kb (human OX2 receptors): 6.31 nM

Structure (SMILES): Cc1nc(C(=O)N2CC3(CC3)C[C@H]2CNc2cc(C(F)(F)F)ccn2)c(-c2ccccc2)s1 [Compound 2j, (S)-(2-methyl-5-phenylthiazol-4-yl)(6-(((4-(trifluoromethyl)pyridin-2-yl)amino)methyl)-5-azaspiro[2.4]heptan-5-yl)methanone]
- Kb (human OX1 receptors): 6.31 nM
- Kb (human OX2 receptors): 3.16 nM

Structure (SMILES): Cc1ccc(-c2ncccn2)c(C(=O)N2CC3(CC3)C[C@H]2CNc2ccc(C(F)(F)F)cn2)c1 [Compound 1o, (S)-(5-methyl-2-(pyrimidin-2-yl)phenyl)(6-(((5-(trifluoromethyl)pyridin-2-yl)amino)methyl)-5-azaspiro[2.4]heptan-5-yl)methanone]
- Kb (human OX1 receptors): 2 nM
- pKb OX1 (human OX1 receptors; [1]): 8.7
- Kb (human OX2 receptors): 251 nM
- pKb OX2 (human OX2 receptors; [1]): 6.6

Structure (SMILES): Cc1cc(C(F)(F)F)cc(NC[C@@H]2CC3(CC3)CN2C(=O)c2nc(C)sc2-c2ccccc2)n1 [Compound 2k, (S)-(6-(((6-methyl-4-(trifluoromethyl)pyridin-2-yl)amino)methyl)-5-azaspiro[2.4]heptan-5-yl)(2-methyl-5-phenylthiazol-4-yl)methanone]
- Kb (human OX1 receptors): 15.8 nM
- Kb (human OX2 receptors): 2.51 nM

Structure (SMILES): Cc1cc(C)nc(NC[C@@H]2CC3(CC3)CN2C(=O)c2nc(C)sc2-c2ccccc2)n1 [Compound 2f, (S)-(6-(((4,6-dimethylpyrimidin-2-yl)amino)methyl)-5-azaspiro[2.4]heptan-5-yl)(2-methyl-5-phenylthiazol-4-yl)methanone]
- Kb (human OX1 receptors): 31.6 nM
- Kb (human OX2 receptors): 2.51 nM

Structure (SMILES): O=C(c1cc(Cl)ccc1-c1ncccn1)N1CC2(CC2)C[C@H]1CNc1cc(C(F)(F)F)ccn1 [Compound 1f, (S)-(5-chloro-2-(pyrimidin-2-yl)phenyl)(6-(((4-(trifluoromethyl)pyridin-2-yl)amino)methyl)-5-azaspiro[2.4]heptan-5-yl)methanone]
- Kb (human OX1 receptors): 7.94 nM
- Kb (human OX2 receptors): 12.6 nM

Structure (SMILES): O=C(c1cccc2c1OC(F)(F)O2)N1CC2(CC2)C[C@H]1CNc1ccc(C(F)(F)F)cn1 [Compound 1b, (S)-(2,2-difluorobenzo[d][1,3]dioxol-4-yl)(6-(((5-(trifluoromethyl)pyridin-2-yl)amino)methyl)-5-azaspiro[2.4]heptan-5-yl)methanone]
- Kb (human OX1 receptors): 79.4 nM
- Kb (human OX2 receptors): 63.1 nM

Structure (SMILES): Cc1ccc(-c2ccccc2)c(C(=O)N2CC3(CC3)C[C@H]2CNc2ncc(C(F)(F)F)cc2F)n1 [Compound 3e, (S)-(6-(((3-fluoro-5-(trifluoromethyl)pyridin-2-yl)amino)methyl)-5-azaspiro[2.4]heptan-5-yl)(6-methyl-3-phenylpyridin-2-yl)methanone]
- Kb (human OX1 receptors): 3.98 nM
- Kb (human OX2 receptors): 7.94 nM

Structure (SMILES): Cc1nc(C(=O)N2CC3(CC3)C[C@H]2CNc2ncc(Cl)cn2)c(-c2ccccc2)s1 [Compound 2g, (S)-(6-(((5-chloropyrimidin-2-yl)amino)methyl)-5-azaspiro[2.4]heptan-5-yl)(2-methyl-5-phenylthiazol-4-yl)methanone]
- Kb (human OX1 receptors): 158 nM
- Kb (human OX2 receptors): 158 nM
